Here are results for three molecules from ChEMBL document CHEMBL3217558 (Medchemcomm, 2012).

Assay [1] deals with Voltage-gated inwardly rectifying potassium channel KCNH2 (Homo sapiens, UniProt Q12809).
Assay [2] concerns the target Hepatocyte growth factor receptor (Homo sapiens, UniProt P08581).
Description: Inhibition of c-Met (unknown origin) using poly (Glu, Tyr) 4:1 as substrate after 60 mins by ELISA

The structures appear in SMILES notation.

Voltage-gated inwardly rectifying potassium channel KCNH2, sequence (Q12809 whole entry): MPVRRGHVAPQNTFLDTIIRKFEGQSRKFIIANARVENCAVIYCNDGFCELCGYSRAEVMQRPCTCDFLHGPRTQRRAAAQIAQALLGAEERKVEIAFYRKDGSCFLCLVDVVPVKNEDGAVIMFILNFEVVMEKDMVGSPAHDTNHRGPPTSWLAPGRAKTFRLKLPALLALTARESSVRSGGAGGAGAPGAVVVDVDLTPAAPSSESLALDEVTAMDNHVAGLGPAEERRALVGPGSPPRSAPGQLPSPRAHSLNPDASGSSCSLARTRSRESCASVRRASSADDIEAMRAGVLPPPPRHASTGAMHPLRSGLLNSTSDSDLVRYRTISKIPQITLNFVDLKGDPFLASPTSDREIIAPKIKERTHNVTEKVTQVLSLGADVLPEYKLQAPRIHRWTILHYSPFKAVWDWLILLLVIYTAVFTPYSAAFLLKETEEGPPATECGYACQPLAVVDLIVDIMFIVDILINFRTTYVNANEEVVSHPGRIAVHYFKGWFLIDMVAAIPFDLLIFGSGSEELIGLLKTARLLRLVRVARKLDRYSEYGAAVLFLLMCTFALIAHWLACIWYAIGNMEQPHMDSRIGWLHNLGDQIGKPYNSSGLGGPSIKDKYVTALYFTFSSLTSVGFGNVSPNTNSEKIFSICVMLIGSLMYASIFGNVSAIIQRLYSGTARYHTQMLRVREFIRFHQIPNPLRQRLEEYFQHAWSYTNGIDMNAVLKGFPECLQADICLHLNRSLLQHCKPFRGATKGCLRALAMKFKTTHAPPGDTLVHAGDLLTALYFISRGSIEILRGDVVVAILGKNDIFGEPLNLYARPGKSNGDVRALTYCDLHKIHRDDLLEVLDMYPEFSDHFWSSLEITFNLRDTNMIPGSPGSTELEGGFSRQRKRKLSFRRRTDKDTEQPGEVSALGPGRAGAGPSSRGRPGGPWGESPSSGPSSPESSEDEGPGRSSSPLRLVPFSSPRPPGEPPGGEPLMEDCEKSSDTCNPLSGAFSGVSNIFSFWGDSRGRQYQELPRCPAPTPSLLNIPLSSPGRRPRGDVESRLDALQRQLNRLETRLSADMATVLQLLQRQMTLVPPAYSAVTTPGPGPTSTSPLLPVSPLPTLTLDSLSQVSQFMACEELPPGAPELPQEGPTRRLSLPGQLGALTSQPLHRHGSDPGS
Hepatocyte growth factor receptor, sequence (P08581 whole entry): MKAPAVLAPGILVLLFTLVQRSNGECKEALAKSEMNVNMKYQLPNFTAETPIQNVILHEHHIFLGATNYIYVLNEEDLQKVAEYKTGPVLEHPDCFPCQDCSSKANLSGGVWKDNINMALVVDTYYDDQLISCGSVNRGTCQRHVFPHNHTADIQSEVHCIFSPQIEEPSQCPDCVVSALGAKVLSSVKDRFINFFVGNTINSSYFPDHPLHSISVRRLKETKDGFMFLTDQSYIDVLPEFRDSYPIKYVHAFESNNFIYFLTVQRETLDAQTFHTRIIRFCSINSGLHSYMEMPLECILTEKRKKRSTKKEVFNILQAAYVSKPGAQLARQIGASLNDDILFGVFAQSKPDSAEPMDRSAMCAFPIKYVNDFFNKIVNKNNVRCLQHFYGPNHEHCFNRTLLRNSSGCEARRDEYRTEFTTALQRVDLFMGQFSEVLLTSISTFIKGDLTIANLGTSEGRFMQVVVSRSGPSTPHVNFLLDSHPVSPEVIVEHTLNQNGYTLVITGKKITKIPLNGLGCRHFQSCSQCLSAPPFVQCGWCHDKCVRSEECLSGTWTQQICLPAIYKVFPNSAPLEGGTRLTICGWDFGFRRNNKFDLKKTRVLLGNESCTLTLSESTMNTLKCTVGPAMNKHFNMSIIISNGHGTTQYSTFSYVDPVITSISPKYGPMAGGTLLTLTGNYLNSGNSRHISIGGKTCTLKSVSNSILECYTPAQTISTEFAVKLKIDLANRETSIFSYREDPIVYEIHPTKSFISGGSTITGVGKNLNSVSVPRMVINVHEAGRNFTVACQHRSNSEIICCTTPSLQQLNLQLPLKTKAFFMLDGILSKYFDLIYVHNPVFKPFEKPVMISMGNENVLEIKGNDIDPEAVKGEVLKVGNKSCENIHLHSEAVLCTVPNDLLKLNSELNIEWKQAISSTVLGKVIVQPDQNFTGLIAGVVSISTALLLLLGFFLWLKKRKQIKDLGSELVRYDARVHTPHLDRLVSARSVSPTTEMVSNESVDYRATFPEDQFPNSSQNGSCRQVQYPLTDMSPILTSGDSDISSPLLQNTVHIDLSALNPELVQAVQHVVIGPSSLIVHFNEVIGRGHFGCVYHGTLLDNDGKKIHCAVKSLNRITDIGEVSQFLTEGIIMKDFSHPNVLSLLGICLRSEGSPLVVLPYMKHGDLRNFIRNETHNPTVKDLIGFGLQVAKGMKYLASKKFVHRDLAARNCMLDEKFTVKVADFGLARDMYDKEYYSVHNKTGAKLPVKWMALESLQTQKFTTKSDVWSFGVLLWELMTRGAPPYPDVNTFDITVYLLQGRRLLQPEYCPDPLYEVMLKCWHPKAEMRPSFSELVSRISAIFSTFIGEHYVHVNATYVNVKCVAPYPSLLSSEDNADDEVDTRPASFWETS

Regarding `CC(=O)c1cccc(CNc2cc(C(F)(F)F)cc3ncc(N4CCN(C)CC4)cc23)c1`, the IC50 in assay [1] worked out at 93.6 µM.
On the same count and under the same terms, next, `CCNC(=O)Nc1cccc(CNc2cc(C(F)(F)F)cc3ncc(N4CCN(C)CC4)cc23)c1`: 81.7 µM.
In assay [2], `[2H]C(Nc1cc(C(F)(F)F)cc2ncc(N3CCN(C(C)=O)CC3)cc12)c1cccc([N+](=O)[O-])c1` (stereo not drawn) had an IC50 of 0.0016 µM.
